Columns and labels:
[1] = biological target: human CMV DNA polymerase UL54 (Human cytomegalovirus (strain AD169) (HHV-5) (Human herpesvirus 5), UniProt P08546); test: CMV polymerase biochemical assay (molecular beacon-based)
In short: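 Readout was beacon fluorescence (ex 480, em 535 nm), used to derive IC50. Each dNTP was at 1.25 uM, with 200 nM primer and 100 nM beacon, after a 30-min RT inhibitor preincubation. Enzyme was 625 pM for HSV UL30 (20 min RT reaction) or 100 pM for CMV UL54 (60 min RT), both sf9-expressed MBP fusions, in pH 7.5 Tris buffer with MgCl2.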

[2] = system: EBV (SNU-719 gastric carcinoma cell line latently infected with EBV); test: EBV qPCR assay (cellular herpesvirus replication); format: cell-based; settings: human gammaherpesvirus 4; SNU-719 cells, TPA/NaB reactivation, qPCR after 72 hrs; n>3, value (+/- spread)
Description: For all viral assays, 10 mM DMSO stock compound solutions were serially diluted in DMSO at 3.16 fold dilutions in 96-well clear round bottom plates. Compounds were then diluted in assay media at 1:20 and subsequently 10 μL of these dilutions were added to cells for final compound concentrations ranging either from 0.0159 μM to 50 μM in 0.5% DMSO/assay media, or from 0.00318 to 10 μM in 0.5% DMSO/assay media.
EBV qPCR assay: The assay uses the SNU-719 gastric carcinoma cell line which is latently infected with EBV. Upon reactivation with chemical reagents, EBV DNA copy number was measured by qPCR. Viral replication in the presence or absence of compounds was measured according to the following procedure: SNU-719 cells were plated at 2×10^4 cells/well in 96-well clear bottom plates, black in 80 μL/well of assay media: 2% FBS in RPMI 1640 (ATCC cat # 30-2001). […]
qPCR reactions were carried out in a total reaction volume of 20 μL, using the QuantiFast® Multiplex PCR kit (Qiagen cat #204656). Eighteen μL of qPCR master mix (10 μL of 2× QuantiFast® Multiplex PCR Master Mix, 1 μL of 20× Primer/Probe Mix specific to housekeeping gene, 1 μL of 20× Primer/Probe Mix specific to viral gene, 6 μL of H2O) was distributed into each well of a 384 well plate. […]
Relative quantification was calculated with the ΔΔCT Method, and then converted into percent inhibitions. […]

N#Cc1ccc(CNC(=O)c2ccc3n(c2=O)CCN(CC2(S(=O)(=O)C4CC4)CC2)C3=O)cc1 [Example 1, N-(4-cyanobenzyl)-2-((1-(cyclopropylsulfonyl)cyclopropyl)methyl)-1,6-dioxo-2,3,4,6-tetrahydro-1H-pyrido[1,2-a]pyrazine-7-carboxamide] was tested, and the IC50 [1] was 0.8 nM and the EC50 [2] was 12 nM.
